The assay has as its system HIV-IIIb. In words: Test A: Antiviral Assay in MT4 Cells. The assay is classed as cell-based. An outline of the steps: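 Read-out: CellTiter-Glo chemiluminescence after 5-day incubation at 37 °C. Compounds tested as 3-fold serial dilutions (10 concentrations, quadruplicate) in RPMI 1640 with 10% FBS, on MT-4 cells pre-infected at 37 °C with HIV-IIIb at 0.004 m.o.i.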
[1] abbreviates: Human immunodeficiency virus 1, IIIB, MT4, 120 h, Table 2, MT-4 cells infected with HIV-IIIb, 5 days of incubation, CellTiter-Glo, read-out: EC50.
The mark [2] stands for this setting: Human immunodeficiency virus 1, IIIB, MT4, 120 h.

Where two headings read alike, the source gives them in different places.

What is called EC50 is the concentration giving half of the maximal effect. Take `Cc1cc2nc(-c3ccnc(N4CCN(C(=O)N(C)C)CC4)n3)sc2c(-c2ccc(Cl)cc2)c1[C@H](OC(C)(C)C)C(=O)O` [Compound 472, (S)-2-tert-butoxy-2-(7-(4-chlorophenyl)-2-(2-(4-(dimethylcarbamoyl)piperazin-1-yl)pyrimidin-4-yl)-5-methylbenzo[d]thiazol-6-yl)acetic acid]: under setting [1], the half-maximal effective concentration (EC50) was found to be 4 nM.

Turning to `CCN1CCN(c2nccc(-c3nc4cc(C)c([C@H](OC(C)(C)C)C(=O)O)c(-c5ccc(Cl)cc5)c4s3)n2)CC1=O` [Compound 473, (S)-2-tert-butoxy-2-(7-(4-chlorophenyl)-2-(2-(4-ethyl-3-oxopiperazin-1-yl)pyrimidin-4-yl)-5-methylbenzo[d]thiazol-6-yl)acetic acid], under setting [1], the EC50 came to 8 nM.

With `Cc1cc2nc(-c3ccnc(N4CCN(C(C)C(F)(F)F)CC4)n3)sc2c(-c2ccc(Cl)cc2)c1[C@H](OC(C)(C)C)C(=O)O` (stereo partly drawn) [Compound 474, (2S)-2-tert-butoxy-2-(7-(4-chlorophenyl)-5-methyl-2-(2-(4-((2R/2S)-1,1,1-trifluoropropan-2-yl)piperazin-1-yl)pyrimidin-4-yl)benzo[d]thiazol-6-yl)acetic acid], under setting [1], the EC50 turned out to be 40 nM. Same read-out and setting: in the case of `CCN1CCN(c2nccc(-c3nc4cc(C)c([C@H](OC(C)(C)C)C(=O)O)c(-c5ccc(Cl)cc5)c4s3)n2)CC1` [Compound 475, (S)-2-tert-butoxy-2-(7-(4-chlorophenyl)-2-(2-(4-ethylpiperazin-1-yl)pyrimidin-4-yl)-5-methylbenzo[d]thiazol-6-yl)acetic acid] it was 6 nM.

`Cc1cc2nc(-c3ccnc(N4CCNCC4)n3)sc2c(-c2ccc(Cl)cc2)c1[C@H](OC(C)(C)C)C(=O)O` [Compound 476, (S)-2-tert-butoxy-2-(7-(4-chlorophenyl)-5-methyl-2-(2-(piperazin-1-yl)pyrimidin-4-yl)benzo[d]thiazol-6-yl)acetic acid]: the concentration giving a half-maximal response (EC50) under setting [1] came out at 128 nM.

In the case of `Cc1cc2nc(-c3ccnc(N4CCCN(C)CC4)n3)sc2c(-c2ccc(Cl)cc2)c1[C@H](OC(C)(C)C)C(=O)O` [Compound 477, (S)-2-tert-butoxy-2-(7-(4-chlorophenyl)-5-methyl-2-(2-(4-methyl-1,4-diazepan-1-yl)pyrimidin-4-yl)benzo[d]thiazol-6-yl)acetic acid], under setting [1], the EC50 amounted to 14 nM.

With `Cc1cc2nc(-c3ccnc(N4CC[C@H](N(C)C)C4)n3)sc2c(-c2ccc(Cl)cc2)c1[C@H](OC(C)(C)C)C(=O)O` [Compound 478, (S)-2-tert-butoxy-2-(7-(4-chlorophenyl)-2-(2-((S)-3-(dimethylamino)pyrrolidin-1-yl)pyrimidin-4-yl)-5-methylbenzo[d]thiazol-6-yl)acetic acid], the EC50 under setting [1] is 4 nM. In the case of `Cc1cc2nc(-c3ccnc(N4CC[C@@H](N(C)C)C4)n3)sc2c(-c2ccc(Cl)cc2)c1[C@H](OC(C)(C)C)C(=O)O` [Compound 479, (S)-2-tert-butoxy-2-(7-(4-chlorophenyl)-2-(2-((R)-3-(dimethylamino)pyrrolidin-1-yl)pyrimidin-4-yl)-5-methylbenzo[d]thiazol-6-yl)acetic acid], the EC50 under setting [1] was 4 nM. Molecule `Cc1cc2nc(-c3cncc(N4CCN(C(C)C)CC4)n3)sc2c(-c2ccc(Cl)cc2)c1[C@H](OC(C)(C)C)C(=O)O` [Compound 480, (S)-2-tert-butoxy-2-(7-(4-chlorophenyl)-2-(6-(4-isopropylpiperazin-1-yl)pyrazin-2-yl)-5-methylbenzo[d]thiazol-6-yl)acetic acid] returned an EC50 under setting [2] of 2 nM. For the molecule `Cc1cc2nc(-c3cncc(N4CCN(C(C)C)CC4)c3)sc2c(-c2ccc(Cl)cc2)c1[C@H](OC(C)(C)C)C(=O)O` [Compound 481, (S)-2-tert-butoxy-2-(7-(4-chlorophenyl)-2-(5-(4-isopropylpiperazin-1-yl)pyridin-3-yl)-5-methylbenzo[d]thiazol-6-yl)acetic acid], the EC50 under setting [1] was 17 nM.

On to `Cc1cc2nc(-c3cncc(N4CCN(C5COC5)CC4)c3)sc2c(-c2ccc(Cl)cc2)c1[C@H](OC(C)(C)C)C(=O)O` [Compound 482, (S)-2-tert-butoxy-2-(7-(4-chlorophenyl)-5-methyl-2-(5-(4-(oxetan-3-yl)piperazin-1-yl)pyridin-3-yl)benzo[d]thiazol-6-yl)acetic acid], for which the EC50 under setting [1] is 14 nM.

Take `Cc1cc2nc(-c3cccc(N4CCN(C(C)C)CC4)c3)sc2c(-c2ccc(Cl)cc2)c1[C@H](OC(C)(C)C)C(=O)O` [Compound 483, (S)-2-tert-butoxy-2-(7-(4-chlorophenyl)-2-(3-(4-isopropylpiperazin-1-yl)phenyl)-5-methylbenzo[d]thiazol-6-yl)acetic acid]: under setting [1], the EC50 is 37 nM. For `Cc1cc2nc(-c3csc(N4CCN(C(C)C)CC4)n3)sc2c(-c2ccc(Cl)cc2)c1[C@H](OC(C)(C)C)C(=O)O` [Compound 484, (S)-2-tert-butoxy-2-(7-(4-chlorophenyl)-2-(2-(4-isopropylpiperazin-1-yl)thiazol-4-yl)-5-methylbenzo[d]thiazol-6-yl)acetic acid], the EC50 under setting [1] was 9 nM. Still for that read-out and setting: in the case of `Cc1cc2nc(-c3cnc(N4CCN(C(C)C)CC4)s3)sc2c(-c2ccc(Cl)cc2)c1[C@H](OC(C)(C)C)C(=O)O` [Compound 485, (S)-2-tert-butoxy-2-(7-(4-chlorophenyl)-2-(2-(4-isopropylpiperazin-1-yl)thiazol-5-yl)-5-methylbenzo[d]thiazol-6-yl)acetic acid] it was 15 nM; in that of `Cc1cc2nc(-c3ncc(N4CCN(C(C)C)CC4)s3)sc2c(-c2ccc(Cl)cc2)c1[C@H](OC(C)(C)C)C(=O)O` [Compound 486, (S)-2-tert-butoxy-2-(7-(4-chlorophenyl)-2-(5-(4-isopropylpiperazin-1-yl)thiazol-2-yl)-5-methylbenzo[d]thiazol-6-yl)acetic acid], 31 nM; in that of `Cc1cc2nc(-c3ncc4c(n3)c(C)nn4C)sc2c(-c2ccc(Cl)cc2)c1[C@H](OC(C)(C)C)C(=O)O` [Compound 487, (S)-2-tert-butoxy-2-(7-(4-chlorophenyl)-2-(1,3-dimethyl-1H-pyrazolo[4,3-d]pyrimidin-5-yl)-5-methylbenzo[d]thiazol-6-yl)acetic acid], 12 nM. For the molecule `Cc1cc2nc(-c3ccnc(-c4ncc5c(n4)c(C)nn5C)c3)sc2c(-c2ccc(Cl)cc2)c1[C@H](OC(C)(C)C)C(=O)O` [Compound 488, (S)-2-tert-butoxy-2-(7-(4-chlorophenyl)-2-(2-(1,3-dimethyl-1H-pyrazolo[4,3-d]pyrimidin-5-yl)pyridin-4-yl)-5-methylbenzo[d]thiazol-6-yl)acetic acid], it took 11 nM to reach a half-maximal effect under setting [2] (EC50).

With `Cc1cc2nc(-c3ccnc(-c4ccc5nc(N)ccc5c4)n3)sc2c(-c2ccc(Cl)cc2)c1[C@H](OC(C)(C)C)C(=O)O` [Compound 489, (S)-2-(2-(2-(2-aminoquinolin-6-yl)pyrimidin-4-yl)-7-(4-chlorophenyl)-5-methylbenzo[d]thiazol-6-yl)-2-tert-butoxyacetic acid], the EC50 under setting [1] is 20 nM. With `Cc1cc2nc(-c3cnc(C)c(-c4ccc5c(cnn5C)n4)c3)sc2c(-c2ccc(Cl)cc2)c1[C@H](OC(C)(C)C)C(=O)O` [Compound 490, (S)-2-tert-butoxy-2-(7-(4-chlorophenyl)-5-methyl-2-(6-methyl-5-(1-methyl-1H-pyrazolo[4,3-b]pyridin-5-yl)pyridin-3-yl)benzo[d]thiazol-6-yl)acetic acid], a half-maximal effect under setting [2] (EC50) was put at 3 nM. `Cc1cc2nc(N3CCN(C)[C@@H](c4ccc5c(cnn5C)c4)C3)sc2c(-c2ccc(Cl)cc2)c1[C@H](OC(C)(C)C)C(=O)O` [Compound 491, (S)-2-tert-butoxy-2-(7-(4-chlorophenyl)-5-methyl-2-((S)-4-methyl-3-(1-methyl-1H-indazol-5-yl)piperazin-1-yl)benzo[d]thiazol-6-yl)acetic acid]: the EC50 under setting [1] came to 51 nM. Still for that read-out and setting: in the case of `Cc1cc2nc(N3CCN(C)[C@H](c4ccc5c(cnn5C)c4)C3)sc2c(-c2ccc(Cl)cc2)c1[C@H](OC(C)(C)C)C(=O)O` [Compound 492, (S)-2-tert-butoxy-2-(7-(4-chlorophenyl)-5-methyl-2-((R)-4-methyl-3-(1-methyl-1H-indazol-5-yl)piperazin-1-yl)benzo[d]thiazol-6-yl)acetic acid] it was 3 nM. `Cc1cc2nc(-c3ccc4c(c3)c(N3CCN(C(C)C(F)(F)F)CC3)nn4C)sc2c(-c2ccc(Cl)cc2)c1[C@H](OC(C)(C)C)C(=O)O` (stereo partly drawn) [Compound 493, (2S)-2-tert-butoxy-2-(7-(4-chlorophenyl)-5-methyl-2-(1-methyl-3-(4-((2R/2S)-1,1,1-trifluoropropan-2-yl)piperazin-1-yl)-1H-indazol-5-yl)benzo[d]thiazol-6-yl)acetic acid]: the EC50 (Table 2, MT-4 cells infected with HIV-IIIb, 5 days of incubation, CellTiter-Glo, read-out: EC50) was determined as 51 nM. `Cc1cc2nc(-c3ccc4c(n3)c(N3CCN(C)CC3)nn4C)sc2c(-c2ccc(Cl)cc2)c1[C@H](OC(C)(C)C)C(=O)O` [Compound 495, (S)-2-tert-butoxy-2-(7-(4-chlorophenyl)-5-methyl-2-(1-methyl-3-(4-methylpiperazin-1-yl)-1H-pyrazolo[4,3-b]pyridin-5-yl)benzo[d]thiazol-6-yl)acetic acid]: under setting [1], the EC50 amounted to 4 nM. As to `Cc1cc2nc(-c3ccc4c(n3)c(-c3cccnc3)nn4C)sc2c(-c2ccc(Cl)cc2)c1[C@H](OC(C)(C)C)C(=O)O` [Compound 496, (S)-2-tert-butoxy-2-(7-(4-chlorophenyl)-5-methyl-2-(1-methyl-3-(pyridin-3-yl)-1H-pyrazolo[4,3-b]pyridin-5-yl)benzo[d]thiazol-6-yl)acetic acid], the EC50 under setting [1] worked out at 5 nM. On the same count and under the same terms, in the case of `Cc1cc2nc(-c3ccc4c(c3)c(-c3cncnc3)nn4C)sc2c(-c2ccc(Cl)cc2)c1[C@H](OC(C)(C)C)C(=O)O` [Compound 497, (S)-2-tert-butoxy-2-(7-(4-chlorophenyl)-5-methyl-2-(1-methyl-3-(pyrimidin-5-yl)-1H-indazol-5-yl)benzo[d]thiazol-6-yl)acetic acid] it was 4 nM.

(Values after patent US8987250B2 (Gilead Sciences, Inc., priority 2012, dated 2015).)
